PubChem BioAssay (NCI)
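1) Cells in 96-well plates. 2) Compound, 48 h, 5 concentrations. 3) Linear interpolation between surrounding doses. 4) Unreached endpoint = highest concentration. The concentration for 50% growth inhibition is given as GI50. TGI is the concentration that stops growth completely.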

What was measured:
Experiment in all cases: NCI tumour cell line growth inhibition, 48 h
EKVX NSCLC = tested on: EKVX NSCLC
UACC-62 melanoma = tested on: UACC-62 melanoma
SNB-75 CNS = tested on: SNB-75 CNS
SR leukemia = tested on: SR leukemia
LOX IMVI melanoma = tested on: LOX IMVI melanoma
HT29 colon = tested on: HT29 colon
OVCAR-8 ovarian = tested on: OVCAR-8 ovarian
SK-OV-3 ovarian = tested on: SK-OV-3 ovarian

Compound | TGI (EKVX NSCLC) [µM] | TGI (UACC-62 melanoma) [µM] | TGI (SNB-75 CNS) [µM] | TGI (SR leukemia) [µM] | TGI (LOX IMVI melanoma) [µM] | TGI (HT29 colon) [µM] | TGI (OVCAR-8 ovarian) [µM] | TGI (SK-OV-3 ovarian) [µM] | GI50 (EKVX NSCLC) [µM] | GI50 (UACC-62 melanoma) [µM] | GI50 (LOX IMVI melanoma) [µM] | GI50 (HT29 colon) [µM] | GI50 (OVCAR-8 ovarian) [µM] | GI50 (SK-OV-3 ovarian) [µM]
CCCCCCCC(=O)OCC1OC(n2cc(F)c(=O)[nH]c2=O)C(NC(=O)OCc2ccccc2)C(O)C1O (stereo not drawn) | > 100 | > 100 | > 100 | > 100 | > 100 | > 100 | > 100 | > 100 |  |  |  |  |  | 
CCC(=O)C(C)C(=O)C(=O)C(=O)OC (stereo not drawn) | > 100 | > 100 | > 100 | > 100 | > 100 | > 100 | > 100 | > 100 |  |  |  |  |  | 
O=C1[C@H]2ON(c3ccccc3)C(c3ccccc3F)[C@H]2C(=O)N1c1ccc(Cc2ccc(N3C(=O)[C@@H]4ON(c5ccccc5)C(c5ccccc5F)[C@@H]4C3=O)cc2)cc1 (stereo partly drawn) |  | > 100 | > 100 |  | > 100 | > 100 |  | > 100 |  |  |  |  |  | 
O=C(O)C(C(=O)C(=O)C(C(=O)O)c1ccc(Cl)cc1)c1ccc(Cl)cc1 (stereo not drawn) | 13.3 | 3.91 | 8.89 | 6 | 8.79 | 11.1 | 6.23 | 18.2 |  |  |  |  |  | 
CC1=C(C(=O)Nc2ccc([N+](=O)[O-])cc2)C(c2ccccc2O)C(C(=O)Nc2ccc([N+](=O)[O-])cc2)=C(C)N1 | 84.9 |  | 89 |  | 34.5 | 57.8 | > 100 | 94.7 |  |  |  |  |  | 
O=[P+](O)c1cc2ccccc2c2ccccc12 | > 100 | > 100 | > 100 |  | > 100 | > 100 | > 100 | > 100 |  |  |  |  |  | 
COc1ccc(OC)c(NCC#N)c1 | > 100 | > 100 | > 100 |  | > 100 | > 100 | > 100 | > 100 |  |  |  |  |  | 
CN(C(=O)C12C3(C(=O)C(C)(C)C)C4C5(C#N)C3C1(C(=O)C(C)(C)C)C5C42C(=O)C(C)(C)C)C(C)(C)C (stereo not drawn) | > 50 | > 50 | > 50 | > 50 |  | > 50 | > 50 | > 50 |  |  |  |  |  | 
CN(C)C(=S)/N=c1\ss/c(=N\C(=S)N(C)C)n1-c1ccc(Cl)cc1 | > 100 | > 100 | > 100 | > 100 | > 100 | > 100 | > 100 | > 100 |  |  |  |  |  | 
O=c1nc(NC(c2ccccc2)(c2ccccc2)c2ccccc2)ccn1CCO | > 100 |  | > 100 | > 100 | > 100 | > 100 | > 100 |  |  |  |  |  |  | 
CCOC(=O)[C@H]1CSC[C@@H](C(=O)OC)N1 | > 100 | > 100 | > 100 | > 100 | > 100 | > 100 | > 100 | > 100 |  |  |  |  |  | 
CCOC(=O)c1cc2c(cn1)[nH]c1cccc(N)c12 |  | > 100 | > 100 | > 100 | > 100 | > 100 | > 100 |  |  |  |  |  |  | 
CCCCN=C(NC#N)N(Cc1ccccc1)Cc1ccccc1 | 74.9 | 34.8 | > 100 |  | 29.7 | 28.7 | > 100 | 87.6 |  |  |  |  |  | 
O=C1C2CC=CCC2C(=O)C12CCc1ccccc12 (stereo not drawn) | > 100 | > 100 | > 100 |  | > 100 | > 100 | > 100 | > 100 |  |  |  |  |  | 
Cc1ccc(C(=O)N2c3ccccc3N(C)n3cccc3C2CC(=O)O)cc1 (stereo not drawn) | > 100 | > 100 | > 100 |  | > 100 | > 100 | > 100 |  |  |  |  |  |  | 
CC(C)N1CCC2(CC1)NNc1ncccc1-n1cccc12 | > 100 |  | > 100 |  | > 100 | > 100 | > 100 |  |  |  |  |  |  | 
CC(C)(O)[C@@H]1CC[C@@]2(C)CCC[C@H](O)[C@H]2C1 |  | > 100 | > 100 | > 100 | > 100 | > 100 | > 100 | > 100 |  |  |  |  |  | 
O=c1cc(-c2ccccc2)nc(/C=C(\O)c2ccncc2)n1-c1ccccc1 | > 100 | > 100 | > 100 |  | > 100 | > 100 | > 100 | > 100 |  |  |  |  |  | 
COc1cc([C@H]2c3cc4c(cc3[C@H](NCc3ccc([N+](=O)[O-])cc3)C3COC(=O)[C@H]32)OCO4)cc(OC)c1O (stereo partly drawn) | > 23.6 | 12.1 | 6.6 |  | 9.81 | 14.6 | 7.62 | > 24.6 |  |  |  |  |  | 
CC(C)(c1ccc(Oc2ccc(C#N)c(C#N)c2)cc1)c1ccc(Oc2ccc(C#N)c(C#N)c2)cc1 | > 100 | > 100 | 89.2 |  | > 100 | > 100 | > 100 | > 100 | > 100 | > 100 | > 100 | > 100 | > 100 | > 100
COC1=C2C[C@H](O)C(C)C[C@@]2(OC)OC1=O (stereo partly drawn) |  | > 100 | > 100 |  | > 100 | > 100 |  | > 100 |  |  |  |  |  | 
